Assay results taken from patent US4294833A, “Substituted 4-hydroxy-isophthalic acid picolylamides having a pharmaceutical activity in thromboembolic disorders” (Societa Italo-Britannica, priority 1977, dated 1981).

Key:
[1] = system: CaCl2-induced plasma coagulation; assay: Anticoagulant activity on PRP, Hartert's thromboelastograph; assay type: in vivo, New Zealand rabbits; conditions: Oryctolagus cuniculus, ip, percent increase of total time for coagulum formation (r+k) vs before treatment; 25 mg/kg intraperitoneal, rabbits; read-out: anticoagulant activity (AC)
Protocol: Determination of the anticoagulant activity
The anticoagulant activity was also assessed on PRP of animals treated as described in the preceding methods, by using again Hartert's thromboelastograph method.
The plasma coagulation was induced by adding to 0.25 ml PRP a 1.29% solution of CaCl2.
The anticoagulant effect was determined as a percent increase of the total time for the coagulum formation (the index r+k can be obtained from the thromboelastograph diagram) in a plasma after treatment, referred to the same index obtained before the treatment (control). Again the dose level was 25 mg/kg for each compound under examination, intraperitoneally.
(§1) In tables I and II are further indicated for each compound the method of preparation; the melting point PF in °C; the platelet antiaggregant activity (AAP) expressed in terms of DI50 in mg/kg, referred to ADP and thrombin respectively; the antithrombin activity (AT) in %; the anticoagulant activity (AC) in %; the fibrinolytic activity (FL) in %; the acute toxicity (LD50) in mice, intraperitoneally, in mg/kg, as previously defined.

[2] = Acute toxicity, intraperitoneal; conditions: mouse, in vivo, ip, male Swiss mice, intraperitoneal, 7 days observation; preliminary, by graphic interpolation; read-out: acute toxicity (LD50 / DL50)
Protocol: The acute toxicity limit was determined intraperitoneally on male Swiss mice, weighing 20±2 g, held fasting for 18 hours with water ad libitum.
The animals were maintained under observation for 7 days of treatment, by examining the general symptomatology and noting the death sequency. The preliminary DL50 in mg/kg body weight was calculated by graphic interpolation of the results as obtained.
as §1

[3] = system: platelet aggregation induced by ADP; assay: Platelet aggregation inhibitory activity in vivo (Born aggregometer), ADP-induced; parameters: species or system New Zealand rabbits; conditions: Oryctolagus cuniculus, Platelet, ip, dose for 50% inhibition of ADP-induced aggregation curve; rabbits, intraperitoneal, blood 2, 4 and 6 hours after injection; read-out: platelet antiaggregant activity (AAP), DI50, ADP
Protocol: (§2) Determination of the platelet aggregation inhibitory activity in vivo
(§3) The activity of the above described compounds as platelet antiaggregant was tested in vivo on rabbits, by the Born aggregometer. The inhibition of the aggregation curve induced by ADP and thrombin was assessed with different drug concentrations according to the platelet reactivity. New Zealand rabbits which had been held fasting for 12 hours with water ad libitum, were anaesthetized with Nembutal in a dose of 35 mg/kg intramuscolarly. The blood was withdrawn from the carotidal arthery, before (control) and 2, 4, and 6 hours after the intraperitoneal injection of the compounds under examination (at the dose indicated below). The blood samples were taken up in a 3.8% aqueous solution of sodium citrate in a ratio 10:1 and thereupon centrifuged at 1500 r.p.m. for 10 minutes, for obtaining a PRP (platelet rich plasma). A portion of such a plasma was thereupon centrifuged at 8000 r.p.m. for 10 minutes, for obtaining a PPP (platelet lean plasma) which was used for zeroing the measuring apparatus.
(§4) From the results of said experiments, there was determined the dose of each product in mg/kg body weight able to induce a 50% inhibition of the aggregation curve (DI50) after treatment, referred to the curve obtained by the same control plasma before treatment.
as §1

blood coagulum = assay: Fibrinolytic activity, Fearnley method (lysis of blood coagulum in toto); assay type: in vivo; conditions: Oryctolagus cuniculus, ip, 0.5 h, percent decrease of coagulum weight after 30 minutes at 37° C.; 25 mg/kg intraperitoneal, rabbits; read-out: fibrinolytic activity (FL)
Protocol: Determination of the fibrinolytic activity
The determination of the fibrinolytic activity was made following the Fearnley method for the lysis of the blood coagulum in toto.
0.2 ml of blood were withdrawn from the marginal vein of the ear of rabbits treated in the same way as the previously described tests, before and after an intraperitoneal injection of the compounds under test at a dose level of 25 mg/kg for each compound.
The blood samples were placed in test tubes containing 1.7 ml of phosphate buffer at pH 7.4 and 0.1 ml of thrombin (Roche Topostasin ® per os) at 50 units NIH/ml, and maintained in an ice bath. The test tubes were maintained at said temperature for 30 minutes and thereupon were transferred to a temperature controlled water bath at 37° C.
The fibrinolytic activity was determined as a percent decrease of the coagulum weight, measured after incubation for 30 minutes at 37° C.
as §1

[4] = system: thrombin-induced coagulation of platelet rich plasma; assay: Antithrombin activity on PRP, Hartert's thromboelastograph; assay type: in vivo, New Zealand rabbits; conditions: Oryctolagus cuniculus, Platelet, ip, percent decrease of index ma/[r+k] vs before treatment; 20 mg/kg intraperitoneal, rabbits
Protocol: Determination of the antithrombin activity
The antithrombin activity on the PRP (platelet rich plasma) obtained following the above described method was assessed by Hartert's thromboelastograph (Hellige model). The coagulation was induced by adding to 0.25 ml of plasma 0.06 ml of a thrombin solution (Roche Topostasin® per os) at 60 units*, pH 7.4**. The antithrombin activity was assessed in terms of a percent decrease of the index (ma/[r+k]) which was calculated from the thromboelastograph diagram, wherein r is the reaction time, k is the speed of the coagulum formation and ma is the maximum spread of the tong, after an intraperitoneal treatment with a dose of 20 mg/kg of each compound under examination, referred to the same index obtained before the treatment (control).
as §1

[5] = system: platelet aggregation induced by thrombin; assay: Platelet aggregation inhibitory activity in vivo (Born aggregometer), thrombin-induced; parameters: species or system New Zealand rabbits; conditions: Oryctolagus cuniculus, Platelet, ip, dose for 50% inhibition of thrombin-induced aggregation curve; rabbits, intraperitoneal, blood 2, 4 and 6 hours after injection; read-out: platelet antiaggregant activity (AAP), DI50, Thrombin
Protocol: as §2, §3, §4, §1

SMILES | change in vivo at 25 mg/kg [1] [%] | LD50 at 168 h [2] [mg/kg] | ED50 [3] [mg/kg] | fibrinolytic activity (percent decrease of coagulum weight) at 25 mg/kg (blood coagulum) [%] | inhibition in vivo at 20 mg/kg [4] [%] | ED50 [5] [mg/kg]
CC=COc1c(Cl)cc(C(=O)N(Cc2cccnc2)CC(C)(C)C)cc1C(=O)N(Cc1cccnc1)CC(C)(C)C [Example 48] | 14.4 | 207 | 50.3 | 20.1 | 27.6 | 31.9
CC(C)CCOc1c(Cl)cc(C(=O)NCc2cccnc2)cc1C(=O)NCc1cccnc1 [Example 27] | 23.8 | 195 | 40 | 28.8 | 35.1 | 27.9
C#CCOc1ccc(C(=O)NCc2cccnc2)cc1C(=O)NCc1cccnc1 [Example 22] | 13.6 | 382 | 36.5 | 29.2 | 33.1 | 24.4
CC(C)(C)COc1ccc(C(=O)NCc2cccnc2)cc1C(=O)NCc1cccnc1 [Example 34] | 13.6 | 351 | 35.6 | 22.7 | 29.7 | 27.3
C=CCOc1c(Cl)cc(C(=O)NCc2cccnc2)cc1C(=O)NCc1cccnc1 [Example 25] | 15.5 | 184 | 59.5 | 25.9 | 40.6 | 35.4
COc1cc(C(=O)NCc2cccnc2)cc(C(=O)NCc2cccnc2)c1OC1CCCCC1 [Example 21] | 12.5 | 378 | 35.8 | 28.3 | 32.5 | 24.5
COc1cc(C(=O)NCc2cccnc2)cc(C(=O)NCc2cccnc2)c1OCC(C)(C)C [Example 37] | 14.2 | 378 | 44.6 | 21.9 | 25.5 | 32
O=C(NCc1ccncc1)c1ccc(O)c(C(=O)NCc2ccncc2)c1 [Example 57] | 19 | 661 | 26 | 32.1 | 38.4 | 19.2
C=CCOc1ccc(C(=O)NCc2cccnc2)cc1C(=O)NCc1cccnc1 [Example 7] | 14.5 | 374 | 36.3 | 44.7 | 51.5 | 19.2
COc1ccc(C(=O)N(C)Cc2cccnc2)cc1C(=O)N(C)Cc1cccnc1 [Example 39] | 12.5 | 610 | 59.8 | 19.2 | 26.6 | 42
C=CCCCCOc1ccc(C(=O)NCc2cccnc2)cc1C(=O)NCc1cccnc1 [Example 10] | 12.6 | 194 | 29.4 | 43.9 | 52.6 | 21.1
CC=CCOc1ccc(C(=O)NCc2cccnc2)cc1C(=O)NCc1cccnc1 [Example 11] | 13.5 | 178 | 25.3 | 44.2 | 52.3 | 18.6
CC(C)Oc1ccc(C(=O)NCc2cccnc2)cc1C(=O)NCc1cccnc1 [Example 12] | 12.7 | 615 | 50.2 | 20.2 | 25.6 | 30.9
COc1cc(C(=O)NCc2cccnc2)cc(C(=O)NCc2cccnc2)c1O [Example 33] | 11.2 | 570 | 58.4 | 15.5 | 20.3 | 38.9
C=CCCCOc1ccc(C(=O)NCc2cccnc2)cc1C(=O)NCc1cccnc1 [Example 9] | 14.5 | 375 | 36.2 | 40.3 | 49.9 | 23.2
COc1cc(C(=O)NCc2cccnc2)cc(C(=O)NCc2cccnc2)c1OC1CC1 [Example 18] | 20.1 | 228 | 29.4 | 28.6 | 33.4 | 22
C=CCOc1c(OC)cc(C(=O)NCc2cccnc2)cc1C(=O)NCc1cccnc1 [Example 17] | 14.1 | 298 | 51.7 | 23 | 36 | 32.6
